Entries after “also recorded” stand apart in the source; their conditions may differ. Where two headings read alike, the source gives them in different places.
How the values were obtained:
mushroom tyrosinase = target: T1, mushroom tyrosinase (Agaricus bisporus, UniProt C7FF04); test: Tyrosinase enzyme kinetics and inhibition mechanism (Lineweaver-Burk, Dixon, diphenolase activity plots); assay type: biochemical; settings: for Mode of tyrosinase inhibition: Lineweaver-Burk plot, oxidation of L-DOPA; for Reversible or irreversible tyrosinase inhibition: diphenolase activity, enzyme activity vs enzyme concentration 0.44-14 μg/ml; for ESI dissociation constant (Ki'), tyrosinase: secondary replot of Lineweaver-Burk intercept; for ESI dissociation constant (Ki'), tyrosinase / Ki: substrate L-DOPA; for Ki: secondary replot of Lineweaver-Burk slope, read-out: EI dissociation constant (Ki), tyrosinase
T1 construct: purchased Sigma
T1 sequence (C7FF04 1-392 limits assumed): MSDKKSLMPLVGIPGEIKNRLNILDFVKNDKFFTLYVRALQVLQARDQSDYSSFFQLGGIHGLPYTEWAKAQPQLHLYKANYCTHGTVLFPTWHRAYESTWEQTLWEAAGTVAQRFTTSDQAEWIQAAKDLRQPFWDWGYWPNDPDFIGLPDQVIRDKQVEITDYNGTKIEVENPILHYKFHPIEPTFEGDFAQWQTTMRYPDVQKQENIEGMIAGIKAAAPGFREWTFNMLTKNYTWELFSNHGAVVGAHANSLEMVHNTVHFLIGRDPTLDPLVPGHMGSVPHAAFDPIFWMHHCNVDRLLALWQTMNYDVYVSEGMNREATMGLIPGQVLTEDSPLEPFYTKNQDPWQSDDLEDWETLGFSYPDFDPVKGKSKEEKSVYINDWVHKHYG
Protocol: (§1) To this end, the Lineweaver-Burk plots of 1/absorbance versus 1/urea and 1/absorbance versus 1/L-DOPA were plotted. In all kinetic studies, drug concentrations (as indicated in Lineweaver-Burk plot) and respective substrates, urea in buffer (0.063 to 2 mM) for urease and L-DOPA (0.06 to 2 mM) for tyrosinase, were added and plates were incubated for 10 min at 37°C. Later, respective enzymes were added in plates and absorbance (wavelengths same as above) was monitored for 5 min with 1 min interval. The Lineweaver-Burk plot showing type of enzyme inhibition was plotted as inverse of velocities (1/V) versus inverse of substrate concentration 1/[S] Mm^−1. Later, inhibition constant (Ki) was evaluated by both the Dixon plot and from Lineweaver-Burk plot, by secondary replot of slope versus concentrations of inhibitor.
(§2) To this end, a plot among remaining enzyme activity versus various concentrations of respective enzymes in the presence of drug concentrations (as indicated in graph) was devised as determinant of reversible or irreversible behaviour of enzyme inhibition.

jack bean urease = target: T2, jack bean urease (Canavalia ensiformis, UniProt P07374); test: biochemical
T2 construct: purchased Sigma
T2 sequence (P07374 whole entry, looked up): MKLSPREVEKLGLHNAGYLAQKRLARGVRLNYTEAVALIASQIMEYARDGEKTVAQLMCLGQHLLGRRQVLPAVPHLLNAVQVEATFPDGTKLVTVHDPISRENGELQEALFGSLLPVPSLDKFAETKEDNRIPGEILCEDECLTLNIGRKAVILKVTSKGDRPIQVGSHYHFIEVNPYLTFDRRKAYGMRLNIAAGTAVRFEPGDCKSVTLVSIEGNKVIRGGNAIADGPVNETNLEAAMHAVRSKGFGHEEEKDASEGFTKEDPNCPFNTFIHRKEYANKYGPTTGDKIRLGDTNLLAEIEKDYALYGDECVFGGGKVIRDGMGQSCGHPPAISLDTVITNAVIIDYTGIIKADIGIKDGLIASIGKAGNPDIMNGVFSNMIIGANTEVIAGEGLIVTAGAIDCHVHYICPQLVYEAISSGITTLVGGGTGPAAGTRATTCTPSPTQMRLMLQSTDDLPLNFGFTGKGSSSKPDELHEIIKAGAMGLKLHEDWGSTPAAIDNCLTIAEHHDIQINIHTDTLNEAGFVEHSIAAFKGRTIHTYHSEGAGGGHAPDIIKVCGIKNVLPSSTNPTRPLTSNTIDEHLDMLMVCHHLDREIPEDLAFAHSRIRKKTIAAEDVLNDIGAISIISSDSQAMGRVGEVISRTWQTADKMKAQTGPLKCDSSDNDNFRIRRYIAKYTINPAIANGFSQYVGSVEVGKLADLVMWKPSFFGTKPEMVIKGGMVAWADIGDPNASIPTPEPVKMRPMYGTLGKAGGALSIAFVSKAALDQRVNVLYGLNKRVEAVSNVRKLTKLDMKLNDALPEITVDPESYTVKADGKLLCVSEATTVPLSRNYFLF
Protocol: To evaluate the urease enzyme activity, assay described by Weatherburn 1967 was performed. In 96-well plate, 10 μl of enzyme (jack bean urease, 5 U/ml), 40 μl buffer (100 mM urea, 0.01 M K2HPO4, 1 mM EDTA, and 0.01 M […], pH 8.2), and 20 μl of test drug were loaded. Following 15 min incubation at 37°C, 40 μl of alkali reagent (0.5%, w/v NaOH and 0.1% active chloride NaOCl) and 40 μl of phenol reagents (1%, w/v phenol and 0.005%, w/v sodium nitroprusside) were added.

urease = target: T3, urease (Canavalia ensiformis, UniProt P07374); test: Urease enzyme kinetics and inhibition mechanism (Lineweaver-Burk, Dixon, enzyme activity vs enzyme concentration plots); assay type: biochemical, jack bean; settings: for Mode of urease inhibition: Lineweaver-Burk plot; for Reversible or irreversible urease inhibition: enzyme activity vs enzyme concentration 0.44-14 μg/ml; for ESI dissociation constant (Ki'), urease: secondary replot of Lineweaver-Burk intercept, substrate urea
T3 construct: purchased Sigma
T3 sequence (P07374 whole entry, looked up): as above
Protocol: as §1, §2

In the case of `CO/N=C(\C(=O)N[C@@H]1C(=O)N2C(C(=O)O)=C(COC(C)=O)CS[C@H]12)c1csc(N)n1` [Cefotaxime sodium], the “Mode of tyrosinase inhibition” value (mushroom tyrosinase) is reported as “mixed-type, preferentially competitive”, the “Reversible or irreversible tyrosinase inhibition” value (mushroom tyrosinase) is reported as “irreversibly; also recorded: irreversible” and the “ESI dissociation constant (Ki'), tyrosinase” value (mushroom tyrosinase) is reported as 800 µM. For the same compound, the Ki (mushroom tyrosinase) was 70 µM, the IC50 (jack bean urease) was 60 ± 4 µM and the Ki (urease) was 120 µM. For the same compound, the “Mode of urease inhibition” value (urease) was “competitive”, the “Reversible or irreversible urease inhibition” value (urease) was “irreversibly” and the “ESI dissociation constant (Ki'), urease” value (urease) was 30000 µM.
`CO/N=C(\C(=O)N[C@@H]1C(=O)N2C(C(=O)[O-])=C(C[N+]3(C)CCCC3)CS[C@H]12)c1csc(N)n1` [Cefepime] gave an IC50 (jack bean urease) of 190 ± 37 µM.
With `CO/N=C(\C(=O)N[C@@H]1C(=O)N2C(C(=O)O)=C(COC(N)=O)CS[C@H]12)c1ccco1` [Cefuroxime] the IC50 (jack bean urease) was 180 ± 9 µM.
Work on `C=CC1=C(C(=O)O)N2C(=O)[C@@H](NC(=O)/C(=N\OCC(=O)O)c3csc(N)n3)[C@H]2SC1` [Cefixime trihydrate] yielded an IC50 (jack bean urease) of 180 ± 14 µM.
`CC1=C(C(=O)O)N2C(=O)[C@@H](NC(=O)[C@H](N)c3ccccc3)[C@H]2SC1` [Cephalexin] showed an IC50 (jack bean urease) of 370 ± 46 µM.
Compound `CC1=C(C(=O)O)N2C(=O)[C@@H](NC(=O)[C@H](N)C3=CCC=CC3)[C@H]2SC1` [Cephradine] has an IC50 (jack bean urease) of 120 ± 9 µM.
For `CC(C)(O/N=C(\C(=O)N[C@@H]1C(=O)N2C(C(=O)[O-])=C(C[n+]3ccccc3)CS[C@H]12)c1csc(N)n1)C(=O)O` [Ceftazidime], the IC50 (jack bean urease) was 91 ± 7 µM.
With `CO/N=C(\C(=O)N[C@@H]1C(=O)N2C(C(=O)O)=C(CSc3nc(=O)c(=O)[nH]n3C)CS[C@H]12)c1csc(N)n1` [Ceftriaxone sodium] the “Mode of tyrosinase inhibition” value (mushroom tyrosinase) was “mixed-type, preferentially competitive”, the “Reversible or irreversible tyrosinase inhibition” value (mushroom tyrosinase) was “irreversibly; also recorded: irreversible” and the “ESI dissociation constant (Ki'), tyrosinase” value (mushroom tyrosinase) was 600 µM. The Ki (mushroom tyrosinase) was 100 µM, the IC50 (jack bean urease) was 80 ± 4 µM and the Ki (urease) was 700 µM. For the same compound, the “Mode of urease inhibition” value (urease) was “competitive”, the “Reversible or irreversible urease inhibition” value (urease) was “irreversibly” and the “ESI dissociation constant (Ki'), urease” value (urease) was 6000 µM.
For `NC(N)=S` [Thiourea], the IC50 (jack bean urease; jack bean urease 5 U/ml, 100 mM urea, pH 8.2, OD625 nm, read-out: Jack bean urease inhibition IC50 ± SEM) was 19 ± 2 µM.
For `COCC1=C(C(=O)OC(C)OC(=O)OC(C)C)N2C(=O)[C@@H](NC(=O)/C(=N\OC)c3csc(N)n3)[C@H]2SC1` (stereo partly shown) [Cefpodoxime proxetil], the IC50 (jack bean urease) was 100 ± 14 µM.
`N[C@@H](C(=O)N[C@@H]1C(=O)N2C(C(=O)O)=C(Cl)CS[C@H]12)c1ccccc1` [Cefaclor] was tested, and the IC50 (jack bean urease) was 170 ± 16 µM.
Work on `CC1=C(C(=O)O)N2C(=O)[C@@H](NC(=O)[C@H](N)c3ccc(O)cc3)[C@H]2SC1` [Cefadroxil] yielded an IC50 (jack bean urease) of 220 ± 6 µM.

Reference: article PMC9352478, “Cephalosporin as Potent Urease and Tyrosinase Inhibitor: Exploration through Enzyme Inhibition, Kinetic Mechanism, and Molecular Docking Studies” (BioMed Research International, 2022)
